Source: patent US20090297579A1, “Control of Cells and Cell Multipotentiality in Three Dimensional Matrices” (Massachusetts Institute of Technology, priority 2006, published 2009)
“Also recorded” adds a separate entry of the source.

Columns and labels:
[1] = system: MEFs; experiment: Cell cycle arrest assay with staurosporine: 3D-bilateral structure development / cell mass contraction; type: cell-based, mouse
Experimental: (§1) Cell Cycle Arrest Assays with Staurosporine. Cultures of MEFs were incubated in FM with Staurosporine (20 nM) during 7 days while controls were incubated in FM. At day 6, a pulse of BrdU was applied overnight. MEFs were fixed at day 7 and stained with a mouse monoclonal antibody IGgl anti-BrdU FITC-conjugated (BD PharMingen, 33284×). To assess the dose-response effect of staurosporine on MEFs, these were incubated with different concentrations of staurosporine (0, 2, 20 nM) during 14 days. Visual inspection of the cell mass contraction along these 14 days was performed.
(§2) (A) MEFs were incubated with and without staurosporine (20 nM) during 7 days. Proliferation was studied by means of a BrdU pulse followed by immunostaining against BrdU. (B) MEFs were incubated, during 14 days, with different concentrations of staurosporine (0, 2, 20 nM) to further analyze the effect of proliferation in the contraction phenomenon.

[2] = system: MEFs; experiment: BrdU pulse proliferation assay with staurosporine; type: cell-based, mouse; settings: staurosporine 20 nM, 7 days, BrdU pulse at day 6
Experimental: as §1, §2

[3] = system: EB-derived cells (mouse embryonic stem cell line R1 Oct4-GFP); experiment: Alkaline phosphatase activity of EB-derived cells in 3D culture; type: cell-based; settings: EB-dc 3D cultures
Experimental: Fluorescence microscopy was used to monitor GFP expression during EB formation. The EB were harvested and allowed to settle in a tube. The medium was removed and EB were gently treated with trypsin-EDTA 1× (GIBCO). The resultant EB-derived cells were encapsulated into the peptide scaffold (3D cultures) at a final concentration of 2×10^6 cells/mL, as described above, and cultured in control medium (ES medium in the absence of LIF). 2D cultures, in regular culture plates, were also performed as controls. The EB-derived cells were plated into 12-well plate containing control medium (ES medium in the absence of LIF) at a concentration of 760,000 cells/mL (200,000 cells/cm^2). […]
Alkaline phosphatase activity. Alkaline phosphatase enzyme activity (ALP) of 2D and 3D cultures was measured in triplicate cultures before and after the osteogenic differentiation. […] ALP enzyme activity was calculated after measuring the absorbance of the reaction product formed, p-nitrophenol, at 405 nm on a spectrophotometer. […] Total protein levels were determined using a protein detection kit (Bio-Rad) based on the method of Lowry in order to normalize total protein levels. […]

[4] = system: Mouse Embryonic Fibroblasts (MEF); experiment: Alkaline phosphatase activity of MEFs in 3D culture; type: cell-based
Experimental: Osteogenic differentiation of Mouse Embryonic Fibroblasts (MEF). Mouse embryonic fibroblasts (MEFs) were purchased from ATCC(SCRC-1008). They were isolated from mouse embryos derived from C57BL/6 mothers at 14 days of gestation (E14). The MEFs were expanded prior to osteogenic induction in MEF culture medium of DMEM (high glucose) containing 10% FBS (fetal bovine serum, Hyclone), 4 mM L-glutamine (GIBCO), and 1% (v/v) penicillin-streptomycin (GIBCO). The differentiation experiments were carried out using cells between passages 3 and 5. The MEFs were encapsulated into the peptide scaffold (3D cultures) at a final concentration of 2×10^6 cells/mL, as described above (3D cultures). 2D cultures were also performed by culturing MEFs into 12-well regular culture plates. Both the 2D and 3D cultures were maintained in MEF culture medium for 2-4 days (FIG. 1B). Next, the MEF medium was changed by osteogenic medium (same as in mESC osteogenic induction section). Also, […] of 1-alpha,25-(OH)2 vitamin D3 (Sigma) was added to the osteogenic medium as previously described for mouse-derived NIH 3T3 fibroblasts. The cultures were maintained for different time periods (FIG. 1B, STAGE 3) in osteogenic medium at 37° C. in humidified air with 5% CO2. The medium was regularly exchanged with fresh osteogenic medium.
Alkaline phosphatase activity. Alkaline phosphatase enzyme activity (ALP) of 2D and 3D cultures was measured in triplicate cultures before and after the osteogenic differentiation. The cultures were rinsed twice with […] (TBS, 50 mM Tris base, 0.15 M NaCl, pH 7.4) and then the cells were incubated with 5 mM p-nitrophenyl phosphate (p-nitrophenyl phosphate disodium salt tablets, Sigma) solution in glycine buffer (50 mM glycine, 1 mM MgCl2, pH 10.5) for 30 min at 37° C. ALP enzyme activity was calculated after measuring the absorbance of the reaction product formed, p-nitrophenol, at 405 nm on a spectrophotometer. Standards were prepared by consecutively diluting 10 mM p-nitrophenol (Sigma) solution in glycine buffer at concentrations ranging from 0.0001 mM to 0.06 mM. Total protein levels were determined using a protein detection kit (Bio-Rad) based on the method of Lowry in order to normalize total protein levels. The final APL activity was expressed in units/mg of protein (one unit will hydrolyze 1 micromoles of p-nitrophenyl phosphate per minute at pH 10.5).

[5] = system: Mouse Embryonic Fibroblasts (MEFs); experiment: Gel contraction and bilateral/embryoid-like structure development of MEFs in self-assembling peptide scaffold; type: cell-based; settings: for Gel contraction: Table 4, 10 days
Experimental: In other experiments with RAD16-I, MEF cells (<8th passage) were trypsinized from 75 cm2 culture flasks, suspended in sucrose 20% and mixed with the self-assembling peptide RAD16-I (BD, Puramatrix) 0.5% to obtain a final MEF concentration of 2·10^6 cells/ml and 0.25% of RAD16-I. This suspension was seeded into inserts (Millipore) and jellified by addition of FM. After jellification, FM was added on the hydrogel. Incubation was performed at 37° C. with 5% CO2 and medium was changed every 2 days.
The shape presents bilateral symmetry (3D-bilateral) and resembles some aspects of a vertebrate embryo undergoing axis formation. Collagen I cultures presented a different morphology, basically consisting of a small spherical ball produced by equal contraction forces, without any distinctive shape or pattern.
The percentage of self-assembling peptide used for these experiments was half of the amount we described above (0.25% vs. 0.5%). […] Thus, in this example, two different parameters that may affect the development of such embryoid-like structures were studied: self-assembling peptide scaffold stiffness and fetal bovine serum concentration. […] Gel contraction and the presence of embryoid-like structure development were analyzed. nt=condition not tested.

| ALP activity ([4]; MEF 3D control cultures, after culture) | ALP activity ([4]; MEF 3D control cultures, initial) | ALP activity ([4]; MEF 3D osteogenic cultures, after osteogenic induction) | ALP activity ([4]; MEF 3D osteogenic cultures, initial) | Compound | Effect on 3D-bilateral structure development at diluted concentrations ([1]; staurosporine 0, 2, 20 nM, 14 days) | Development of the 3D-bilateral structure ([1]; staurosporine 20 nM, 7 days, MEFs in RAD16-I) | Incorporation of BrdU [2] | ALP activity ([3]; control (no osteogenic induction)) | ALP activity ([3]; osteogenic-induced) | Contraction ([5]; Table 3, 0.25% RAD, 2% FBS) | Contraction ([5]; Table 3, 0.25% RAD, 10% FBS) | Contraction ([5]; Table 3, 0.25% RAD, 15% FBS) | Structure formation ([5]; Table 3, 0.25% RAD, 15% FBS) | Contraction ([5]; Table 3, 0.5% RAD, 2% FBS) | Contraction ([5]; Table 3, 0.5% RAD, 10% FBS) | Contraction ([5]; Table 3, 0.5% RAD, 15% FBS) | Gel contraction ([5]; peptide gel 0.25%, FBS 2%) | Gel contraction ([5]; peptide gel 0.25%, FBS 15%) | Gel contraction ([5]; peptide gel 0.5%, FBS 15%) |
| --- | --- | --- | --- | --- | --- | --- | --- | --- | --- | --- | --- | --- | --- | --- | --- | --- | --- | --- | --- |
|  |  |  |  | CN[C@@H]1C[C@H]2O[C@@](C)([C@@H]1OC)n1c3ccccc3c3c4c(c5c6ccccc6n2c5c31)C(=O)NC4 [Staurosporine] | dose-response inhibitory effect | clearly abrogated; also recorded: prevented | no incorporation |  |  |  |  |  |  |  |  |  |  |  |  |
| 68.1 U/mg | 1.8 U/mg | 118.3 U/mg | 1.5 U/mg | AcN-RADARADARADARADA-CONH2 [Peptide] |  |  |  | 190.2 U/mg | 87 U/mg | No contraction | Low | High contraction; | bilateral structures | No contraction | Very low | Low | Low | High | Low |
